Source: patent US5274141A, “Designed quinone- and hydroquinone-containing cyclic enediyneols and enediyneones having DNA cleaving and cytotoxic properties” (The Scripps Research Institute, priority 1992, dated 1993)
Where two headings read alike, the source gives them in different places.

Tests used:
[1] = system: Normal Human Dermal Fibroblast (NHDF); experiment: Sulforhodamine B cytotoxicity assay, NHDF; type: cell-based
Description: (§1) In addition to the DNA cleavage screening already discussed, several of the before-described compounds were screened against a panel of twelve cancerous cell lines as target cells and four "normal" cell preparations. This screening utilized a sulforhodamine B cytotoxicity assay as discussed below.
(§2) SULFORHODAMINE B CYTOTOXICITY ASSAY
(§3) 1. Preparation of target cells in 96-well plates
(§4) 2. Preparation of sample drugs and toxic control
(§5) 3. Addition of Sample Drugs, Compounds and Controls to 96-well Plates
(§6) f. Incubate (37° C., 5-10 percent CO2 in humidified incubator) plates for a total of 72 hours. Check plates at 24 hour intervals microscopically for signs of cytotoxicity.
(§7) IC50 values; i.e., the concentration of Compound required to kill one-half of the treated cells, where then calculated.
(§8) The cell lines assayed are listed below along with their respective sources:
(§9) Separate control studies were also carried out using the following well known anticancer drugs with the following IC50 values for NHDF and cancer cells.

[2] = system: Human Mammary Epithelial Cells (HMEC); experiment: Sulforhodamine B cytotoxicity assay, HMEC; type: cell-based; details: normal, 72 hours
Description: as §1, §2, §3, §4, §5, §6, §7
(§10) The cell lines assayed are listed below along with their respective sources: […]

[3] = system: Normal Human Epidermal Keratinocytes (NHEK); experiment: Sulforhodamine B cytotoxicity assay, NHEK; type: cell-based; details: 72 hours
Description: as §1, §2, §3, §4, §5, §6, §7, §10

[4] = system: Chinese Hamster Ovary (CHO); experiment: Sulforhodamine B cytotoxicity assay, CHO; type: cell-based; details: Cricetulus griseus, normal, 72 hours
Description: as §1, §2, §3, §4, §5, §6, §7, §10

SK-Mel-28 (Melanoma) = experiment: Sulforhodamine B cytotoxicity assay, SK-Mel-28; type: cell-based; details: Homo sapiens, 72 hours
Description: as §1, §2, §3, §4, §5, §6, §7, §10

[5] = system: Capan-1 (Pancreatic Carcinoma); experiment: Sulforhodamine B cytotoxicity assay, Capan-1; type: cell-based; details: Homo sapiens, 72 hours
Description: as §1, §2, §3, §4, §5, §6, §7, §10

H-322 (Lung Carcinoma) = experiment: Sulforhodamine B cytotoxicity assay, H-322; type: cell-based; details: Homo sapiens, NCI-H322, 72 hours
Description: as §1, §2, §3, §4, §5, §6, §7, §10

[6] = system: UCLA P-3 (Lung Carcinoma); experiment: Sulforhodamine B cytotoxicity assay, UCLA P-3; type: cell-based; details: Homo sapiens, 72 hours
Description: as §1, §2, §3, §4, §5, §6, §7, §10

MCF-7 (Breast Carcinoma) = experiment: Sulforhodamine B cytotoxicity assay, MCF-7; type: cell-based; details: Homo sapiens, MCF7, 72 hours
Description: as §1, §2, §3, §4, §5, §6, §7, §10

[7] = system: Ovcar-3 (Ovarian Carcinoma); experiment: Sulforhodamine B cytotoxicity assay, Ovcar-3; type: cell-based; details: Homo sapiens, 72 hours
Description: as §1, §2, §3, §4, §5, §6, §7, §10

HT-29 (Colon Carcinoma) = experiment: Sulforhodamine B cytotoxicity assay, HT-29; type: cell-based; details: Homo sapiens, 72 hours
Description: as §1, §2, §3, §4, §5, §6, §7, §10

[8] = system: HL-60 (Promyeocytic Leukemia); experiment: Sulforhodamine B cytotoxicity assay, HL-60; type: cell-based; details: Homo sapiens, 72 hours
Description: as §1, §2, §3, §4, §5, §6, §7, §10

Molt-4 (T-Cell Leukemia) = experiment: Sulforhodamine B cytotoxicity assay, Molt-4; type: cell-based; details: Homo sapiens; MOLT-4; 72 hours; read-out: IC50 Values
Description: as §1, §2, §3, §4, §5, §6, §7, §10

P-388 (Mouse Leukemia) = experiment: Sulforhodamine B cytotoxicity assay, P-388; type: cell-based; details: P388, 72 hours
Description: as §1, §2, §3, §4, §5, §6, §7, §10

φX174 form I DNA = experiment: Cleavage of cell-free supercoiled DNA, agarose gel electrophoresis; type: biochemical; details: pH 7.4, 37° C., 15 hours
Description: FIG. 1 is a photograph of an ethidium bromide stained 1 percent agarose electrophoresis gel o that illustrates the cleavage of .phi.X174 form I DNA (100 μM base pairs) by Compounds 7, 8, 9, 10 and 12 at 50-5000 μM after 15 hours at 37° C. at a pH value of 7.4 in 50 […]. […] Lanes 2-10 correspond to the following: Lane 2: Compound 12 (100 μM); Lane 3: Compound 10 (100 μM); Lane 4: Compound 7 (100 μM); Lane 5: Compound 8 (100 μM); Lanes 6-10: Compound 9 (50, 100, 500, 1000 and 5000 μM). Forms I, II and III shown to the left of the photograph show the relative migrations of supercoiled (form I) relaxed (form II) and linear (form III) DNA, respectively.
To a vial containing 9 microliters of a cell-free .phi.X174 Type I double-stranded DNA in pH 7.4 […] Tris-HCl buffer was added 1 microliter of a 1.0 millimolar or other appropriate ethanol solution of Compounds 7, 8, 9, 10 and 12.
The vials were then placed in a 37° C. oven for 15 hours. A 2.0 microliter portion of glycerol loading buffer solution containing bromothymol blue indicator was added to each vial. A 10 microliter aliquot was then drawn from each. Gel electrophoresis analysis of the aliquots was performed using a 1.0 percent agarose gel with ethidium bromide run at 115 volts for one hour. DNA cleavage was indicated by the formation of Type II DNA, which was detected by visual inspection of the gel under 310 nanometer ultraviolet light.

[9] = Cycloaromatization studies using 1,4-cyclohexadiene in toluene; type: physicochemical; details: 110° C., 1,4-cyclohexadiene in toluene
Description: These reactions provided Compounds 11-13 as shown schematically in Scheme 2, below. [drawing 9]

[10] = Stability observed during synthesis; type: physicochemical; details: ambient temperature
Description: Finally, PCC oxidation (4.0 equivalents PCC, 4Å molecular sieves in CH2 Cl2 at 25° C. for 0.5 hour) of Compound 8 afforded the tricarbonyl Compound 10 in 49 percent yield as step i.

Cancer Cells = experiment: cells; type: cell-based, human or mouse; details: control anticancer drugs, cancer cells; read-out: Range of Average IC50 Values, Cancer Cells
Description: as §1, §2, §3, §4, §5, §6, §7, §8, §9

[11] = control anticancer drugs, read-out: Range of Average IC50 Values, NHDF

**Q.** For `N[C@@H](Cc1ccc(N(CCCl)CCCl)cc1)C(=O)O` [Melphelan, reference compound], which IC50 ([1]; Homo sapiens, read-out: Range of Average IC50 Values, NHDF) is on record?
**A.** Its IC50 is 100 µM.

**Q.** For `Cc1c(C)c(OC(=O)C(C)(C)C)c2c(c1OC(=O)C(C)(C)C)C#CCCCC(O)C#C2` (stereo not shown) [Compound 7], which IC50 ([1]; Homo sapiens, normal, 72 hours, read-out: IC50 Values) is on record?
**A.** Its IC50 is 100 µM.

**Q.** What about the IC50 [2] of the same compound?
**A.** The IC50 was 100 µM.

**Q.** And the IC50 [3]?
**A.** Its IC50 is 25 µM.

**Q.** And the IC50 [4]?
**A.** The IC50 was 100 µM.

**Q.** And the IC50 (SK-Mel-28 (Melanoma))?
**A.** The IC50 was 100 µM.

**Q.** And the IC50 [5]?
**A.** The IC50 was 13 µM.

**Q.** And the IC50 (H-322 (Lung Carcinoma))?
**A.** The IC50 was 100 µM.

**Q.** What about the IC50 [6] of the same compound?
**A.** The IC50 was 13 µM.

**Q.** And the IC50 (MCF-7 (Breast Carcinoma))?
**A.** The IC50 was 50 µM.

**Q.** And the IC50 [7]?
**A.** Its IC50 is 13 µM.

**Q.** And the IC50 (HT-29 (Colon Carcinoma))?
**A.** The IC50 was 13 µM.

**Q.** What about the IC50 [8] of the same compound?
**A.** The IC50 was 100 µM.

**Q.** And the IC50 (Molt-4 (T-Cell Leukemia))?
**A.** The IC50 was 100 µM.

**Q.** What about the IC50 (P-388 (Mouse Leukemia)) of the same compound?
**A.** The IC50 was 13 µM.

**Q.** What about the DNA cleaving activity (φX174 form I DNA) of the same compound?
**A.** Its DNA cleaving activity is “no DNA cleaving activity”.

**Q.** And the “half life (t1/2) of cycloaromatization” value [9]?
**A.** The value was 74 h.

**Q.** And the stability [10]?
**A.** Its stability is “quite stable”.

**Q.** With Calicheamicin [reference compound] as the compound, how does the IC50 [1, 11] read?
**A.** Its IC50 is 0.0025 µM.

**Q.** With `N.N.[Cl][Pt][Cl]` [Cis-Platin, reference compound] as the compound, how does the IC50 [1, 11] read?
**A.** Its IC50 is 50 µM.

**Q.** Which IC50 (Cancer Cells) does the source give for `COc1cccc2c1C(=O)c1c(O)c3c(c(O)c1C2=O)C[C@@](O)(C(=O)CO)C[C@@H]3O[C@H]1C[C@H](N)[C@H](O)[C@H](C)O1` [Doxorubicin, reference compound] here?
**A.** The IC50 was 0.00016 to 0.098 µM.

**Q.** For `CC(=O)O[C@H]1C(=O)[C@@]2(C)[C@H]([C@H](OC(=O)c3ccccc3)[C@]3(O)C[C@H](OC(=O)[C@H](O)[C@@H](NC(=O)c4ccccc4)c4ccccc4)C(C)=C1C3(C)C)[C@]1(OC(C)=O)CO[C@@H]1C[C@@H]2O` [Taxol, reference compound], which IC50 ([1]; Homo sapiens, control anticancer drugs, read-out: Range of Average IC50 Values, NHDF) is on record?
**A.** The IC50 was 0.01 µM.
